Publication PMC12396409, “Screening and hit evaluation of a microbial metabolite library against the pathogenic Plasmodium falciparum and Toxoplasma gondii parasites” (International Journal for Parasitology: Drugs and Drug …, 2025)
Where two headings read alike, the source gives them in different places.

Columns and labels:
[1] = test system: P. falciparum 3D7 parasites; assay: P. falciparum growth inhibition assay, 1-cycle (72 h treatment), SYBR DNA staining (library screen at 2 μg/mL and dose-response); assay type: cell-based, Plasmodium falciparum; conditions: for activity at 2 µg/mL: Plasmodium falciparum
[2] = test system: P. falciparum 3D7 parasites; assay: P. falciparum growth inhibition assay, 2-cycle (120 h treatment), delayed-death screen and dose-response; assay type: cell-based, Plasmodium falciparum; conditions: for activity at 2 µg/mL: Plasmodium falciparum
[3] = test system: T. gondii RH strain (RH-Tub-eYFP) tachyzoites; assay: microbe, parasite or virus in culture; assay type: cell-based, Toxoplasma gondii; conditions: 72 h, 72 h; for percent parasite growth at 2 µg/mL: Toxoplasma gondii
[4] = T. gondii, parasite screen 2 μg/mL, % growth, replicate 1, read-out: Tg_72h_%Growth_Rep1
[5] = T. gondii, parasite screen 2 μg/mL, % growth, replicate 2, read-out: Tg_72h_%Growth_Rep2
[6] = library screen at 2 μg/mL, 72 h, % growth, replicate 1
[7] = library screen at 2 μg/mL, 72 h, % growth, replicate 2
[8] = library screen at 2 μg/mL, 120 h, % growth, replicate 1
[9] = library screen at 2 μg/mL, 120 h, % growth, replicate 2
[10] = library screen at 2 μg/mL, % growth, replicate 1
[11] = library screen at 2 μg/mL, % growth, replicate 2
[12] = P. falciparum, 72 h, screen at 2 μg/mL, replicate 1
[13] = P. falciparum, 72 h, screen at 2 μg/mL, replicate 2
[14] = P. falciparum, 120 h, screen at 2 μg/mL, replicate 1
[15] = P. falciparum, 120 h, screen at 2 μg/mL, replicate 2
[16] = T. gondii, screen at 2 μg/mL, replicate 1
[17] = T. gondii, screen at 2 μg/mL, replicate 2

## CN(C)c1ncnc2c1ncn2[C@@H]1O[C@H](CO)[C@@H](N)[C@H]1O [Puromycin aminonucleoside]
[1]; 3D7, 72 h, P. falciparum, 72 h, parasite screen 2 μg/mL, % growth, replicate 1, read-out: Pf_72h_%Growth_Rep1
  activity at 2 µg/mL: 78%
[1]; 3D7, 72 h, P. falciparum, 72 h, parasite screen 2 μg/mL, % growth, replicate 2, read-out: Pf_72h_%Growth_Rep2
  activity at 2 µg/mL: 105%
[2]; 3D7, 120 h, P. falciparum, 120 h, parasite screen 2 μg/mL, % growth, replicate 1, read-out: Pf_120h_%Growth_Rep1
  activity at 2 µg/mL: 69.5%
[2]; 3D7, 120 h, P. falciparum, 120 h, parasite screen 2 μg/mL, % growth, replicate 2, read-out: Pf_120h_%Growth_Rep2
  activity at 2 µg/mL: 57.6%
[3]; [4]
  percent parasite growth at 2 µg/mL: -2.04%
[3]; [5]
  percent parasite growth at 2 µg/mL: 0.2%

## CCO[C@@H]1[C@@H](OC)[C@H](C)O[C@@H](O[C@H]2C[C@H]3[C@@H]4C=C5C(=O)[C@H](C)[C@@H](O[C@H]6CC[C@H](N(C)C)[C@@H](C)O6)CCC[C@H](CC)OC(=O)C[C@H]5[C@@H]4C=C(C)[C@@H]3C2)[C@@H]1OC [spinosyn L, 3'-Ethoxy-]
[1]; P. falciparum, 72 h, parasite screen 2 μg/mL, % growth, replicate 1
  Pf_72h_%Growth_Rep1: 10.02%
[1]; P. falciparum, 72 h, parasite screen 2 μg/mL, % growth, replicate 2
  Pf_72h_%Growth_Rep2: -2.72%
[2]; P. falciparum, 120 h, parasite screen 2 μg/mL, % growth, replicate 1
  Pf_120h_%Growth_Rep1: 13.87%
[2]; P. falciparum, 120 h, parasite screen 2 μg/mL, % growth, replicate 2
  Pf_120h_%Growth_Rep2: 7.84%
[3]; T. gondii, parasite screen 2 μg/mL, % growth, replicate 1
  Tg_72h_%Growth_Rep1: 142.09%
[3]; T. gondii, parasite screen 2 μg/mL, % growth, replicate 2
  Tg_72h_%Growth_Rep2: 79.71%

## C=C(NC(=O)C(=C)NC(=O)c1ccc2c(n1)-c1coc(n1)C(=C)NC(=O)C(=C)NC(=O)c1nc(oc1C)C(=C)NC(=O)[C@H](C(C)(C)O)NC(=O)C(=C)NC(=O)c1nc(oc1C)/C(=C/C)NC(=O)[C@H]([C@@H](C)O)NC(=O)c1csc-2n1)C(N)=O [Berninamycin A]
[1]; [6]
  Pf_72h_%Growth_Rep1: 102.47%
[1]; [7]
  Pf_72h_%Growth_Rep2: 88.00%
[2]; [8]
  Pf_120h_%Growth_Rep1: 140.98%
[2]; [9]
  Pf_120h_%Growth_Rep2: 104.87%
[3]; [10]
  Tg_72h_%Growth_Rep1: 80.20%
[3]; [11]
  Tg_72h_%Growth_Rep2: 95.18%

## CCCCCCCCCCCCCCCCCC(=O)N[C@H]1CCOC1=O [BIA-O1501]
[1]; P. falciparum 3D7, 72 h, parasite screen at 2 μg/mL, % growth, replicate 1
  Pf_72h_%Growth_Rep1: 84.33%
[1]; P. falciparum 3D7, 72 h, parasite screen at 2 μg/mL, % growth, replicate 2
  Pf_72h_%Growth_Rep2: 54.35%
[2]; P. falciparum 3D7, 120 h, parasite screen at 2 μg/mL, % growth, replicate 1
  Pf_120h_%Growth_Rep1: 92.72%
[2]; P. falciparum 3D7, 120 h, parasite screen at 2 μg/mL, % growth, replicate 2
  Pf_120h_%Growth_Rep2: 140.11%
[3]; T. gondii, parasite screen at 2 μg/mL, % growth, replicate 1
  Tg_72h_%Growth_Rep1: 147.08%
[3]; T. gondii, parasite screen at 2 μg/mL, % growth, replicate 2
  Tg_72h_%Growth_Rep2: 83.28%

## C[C@H]1OC(=O)C=C[C@@H](O)[C@@H](O)CCCCCCCC[C@@H]1O [Berkeleylactone F]
[1]; [6]
  Pf_72h_%Growth_Rep1: 78.45%
[1]; [7]
  Pf_72h_%Growth_Rep2: 83.14%
[2]; [8]
  Pf_120h_%Growth_Rep1: 146.18%
[2]; [9]
  Pf_120h_%Growth_Rep2: 96.20%
[3]; [10]
  Tg_72h_%Growth_Rep1: 83.11%
[3]; [11]
  Tg_72h_%Growth_Rep2: 88.17%

## COc1cc(=O)oc(/C=C/C=C/C=C/C(C)=C/[C@@]2(C)O[C@H](C)[C@](C)(O)[C@H]2O)c1C [Citreoviridin]
[1]; [12]
  Pf_72h_%Growth_Rep1: 92.20%
[1]; [13]
  Pf_72h_%Growth_Rep2: 86.47%
[2]; [14]
  Pf_120h_%Growth_Rep1: 141.81%
[2]; [15]
  Pf_120h_%Growth_Rep2: 93.96%
[3]; [16]
  Tg_72h_%Growth_Rep1: 86.37%
[3]; [17]
  Tg_72h_%Growth_Rep2: 89.97%

## CC/C=C\[C@H](O)[C@H](O)C1=C(C)C(=O)[C@]2(O1)C(=O)N[C@@](OC)(C(=O)c1ccccc1)[C@@H]2O [Pseurotin A]
[1]; 3D7, P. falciparum, 72 h, parasite screen 2 μg/mL, % growth, replicate 1, read-out: Pf_72h_%Growth_Rep1
  activity at 2 µg/mL: 85.8%
[1]; 3D7, P. falciparum, 72 h, parasite screen 2 μg/mL, % growth, replicate 2, read-out: Pf_72h_%Growth_Rep2
  activity at 2 µg/mL: 95.5%
[2]; 3D7, P. falciparum, 120 h, parasite screen 2 μg/mL, % growth, replicate 1, read-out: Pf_120h_%Growth_Rep1
  activity at 2 µg/mL: 79.7%
[2]; 3D7, P. falciparum, 120 h, parasite screen 2 μg/mL, % growth, replicate 2, read-out: Pf_120h_%Growth_Rep2
  activity at 2 µg/mL: 139%
[3]; [4]
  percent parasite growth at 2 µg/mL: 122%
[3]; [5]
  percent parasite growth at 2 µg/mL: 81%

## C=C1C(=O)O[C@H]2C(=O)O[C@H](CCCCCCCC)[C@@H]12 [Avenaciolide]
[1]; [6]
  Pf_72h_%Growth_Rep1: 79.34%
[1]; [7]
  Pf_72h_%Growth_Rep2: 78.44%
[2]; [8]
  Pf_120h_%Growth_Rep1: 53.72%
[2]; [9]
  Pf_120h_%Growth_Rep2: 80.39%
[3]; [10]
  Tg_72h_%Growth_Rep1: 102.05%
[3]; [11]
  Tg_72h_%Growth_Rep2: 95.83%

## O=C(N[C@H](CO)[C@H](O)c1ccc([N+](=O)[O-])cc1)C(Br)Br [Bromamphenicol]
[1]; [12]
  Pf_72h_%Growth_Rep1: 93.46%
[1]; [13]
  Pf_72h_%Growth_Rep2: 85.21%
[2]; [14]
  Pf_120h_%Growth_Rep1: 132.78%
[2]; [15]
  Pf_120h_%Growth_Rep2: 78.55%
[3]; [16]
  Tg_72h_%Growth_Rep1: 80.35%
[3]; [17]
  Tg_72h_%Growth_Rep2: 93.07%
